Assay results as given in ChEMBL document CHEMBL1145055, “A novel class of nonpeptidic biaryl inhibitors of human cathepsin K” (J Med Chem, 2003).

How the values were obtained:
Cathepsin K = molecular target: T1, Cathepsin K (Homo sapiens, UniProt P43235); assay: In vitro inhibitory activity against human cathepsin K, using 2 uM of Z -Leu-Arg-AMC as substrate
T1 sequence (P43235 whole entry): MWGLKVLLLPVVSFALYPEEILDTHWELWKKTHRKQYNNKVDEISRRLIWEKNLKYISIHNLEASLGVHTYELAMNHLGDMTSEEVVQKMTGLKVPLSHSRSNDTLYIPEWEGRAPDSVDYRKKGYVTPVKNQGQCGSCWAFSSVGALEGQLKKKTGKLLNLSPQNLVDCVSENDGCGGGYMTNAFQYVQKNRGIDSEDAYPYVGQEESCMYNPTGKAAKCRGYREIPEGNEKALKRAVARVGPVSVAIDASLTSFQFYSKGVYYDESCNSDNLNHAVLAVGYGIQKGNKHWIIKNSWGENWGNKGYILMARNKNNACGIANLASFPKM

Cathepsin B = Cathepsin B (Homo sapiens, UniProt P07858); assay: In vitro inhibitory activity against human cathepsin B, using 2 uM of Z -Leu-Arg-AMC as substrate
Procathepsin L = Procathepsin L (Homo sapiens, UniProt P07711); assay: In vitro inhibitory activity against human cathepsin L, using 2 uM of Z -Leu-Arg-AMC as substrate
Chain of Procathepsin L (P07711 whole entry): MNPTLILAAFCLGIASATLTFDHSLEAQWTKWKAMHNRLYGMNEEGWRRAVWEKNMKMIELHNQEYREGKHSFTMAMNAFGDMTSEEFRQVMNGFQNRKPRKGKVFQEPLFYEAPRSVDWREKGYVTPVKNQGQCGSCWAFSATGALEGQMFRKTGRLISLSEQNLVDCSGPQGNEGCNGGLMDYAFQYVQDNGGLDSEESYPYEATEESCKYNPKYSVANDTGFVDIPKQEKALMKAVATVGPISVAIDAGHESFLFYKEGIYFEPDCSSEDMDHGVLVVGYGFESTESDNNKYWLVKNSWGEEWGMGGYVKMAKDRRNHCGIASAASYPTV

Cathepsin S = Cathepsin S (Homo sapiens, UniProt P25774); assay: In vitro inhibitory activity against human cathepsin S, using 2 uM of Z -Leu-Arg-AMC as substrate
Chain of Cathepsin S (P25774 whole entry): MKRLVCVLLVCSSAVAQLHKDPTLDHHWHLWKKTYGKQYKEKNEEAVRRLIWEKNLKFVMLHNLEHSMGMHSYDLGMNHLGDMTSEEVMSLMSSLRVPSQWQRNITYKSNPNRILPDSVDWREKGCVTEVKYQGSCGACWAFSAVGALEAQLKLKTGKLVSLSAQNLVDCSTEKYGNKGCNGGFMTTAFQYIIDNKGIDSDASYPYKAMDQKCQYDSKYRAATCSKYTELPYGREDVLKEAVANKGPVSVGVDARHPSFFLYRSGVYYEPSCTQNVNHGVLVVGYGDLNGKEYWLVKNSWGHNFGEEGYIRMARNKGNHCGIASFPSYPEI

Bos taurus = organism: Bos taurus; assay: cells
Description: In vitro Bone resorption; measuring degradation of bovine bone by isolated osteoclasts

Row | SMILES | IC50 (Cathepsin K) | IC50 (Cathepsin B) | IC50 (Procathepsin L) | IC50 (Cathepsin S) | IC50 (Bos taurus)
1 | CN1CCN(c2ccc(-c3cccc(CC(=O)NCC#N)c3)cc2)CC1 | > 10000 nM | > 10000 nM | > 10000 nM | > 10000 nM | –
2 | CC(C)CC(C(=O)NCC#N)c1cccc(-c2ccc(N3CCOCC3)cc2)c1 (centres undefined) | 638 nM | 1740 nM | 1590 nM | 9420 nM | –
3 | CC(C)CC(C(=O)N(CC#N)OC(=O)C(F)(F)F)c1cccc(-c2ccncc2)c1 (centres undefined) | 150 nM | > 10000 nM | 5780 nM | 1750 nM | –
4 | CC(C)CC(C(=O)NCC#N)c1ccc(-c2ccccc2)cc1 (centres undefined) | 790 nM | > 10000 nM | > 10000 nM | 3340 nM | –
5 | CC(C)CC(C(=O)NCC#N)c1cccc(-c2ccc(C3CNCCN3)cc2)c1 (stereo in doubt; 43) | 216 nM | > 10000 nM | > 10000 nM | > 10000 nM | 4870 nM
6 | CC(C)CC(C(=O)NCC#N)c1cccc(-c2ccccn2)c1 (centres undefined) | 488 nM | > 10000 nM | 5580 nM | > 10000 nM | –
7 | CC(C)CC(C(=O)NCC#N)c1cccc(-c2ccc(S(C)(=O)=O)cc2)c1 (centres undefined) | 1230 nM | > 10000 nM | > 10000 nM | 6620 nM | –
8 | CC(C)CC(C(=O)NCC#N)c1cccc(-c2ccc(N3CCN(CC(C)(C)O)CC3)cc2)c1 (centres undefined) | 6 nM | 6370 nM | 9550 nM | > 10000 nM | 142 nM

Continued by falling IC50 (Cathepsin K), values first:

Row | IC50 (Cathepsin K) | IC50 (Cathepsin B) | IC50 (Procathepsin L) | IC50 (Cathepsin S) | IC50 (Bos taurus) | SMILES
9 | 142 nM | > 10000 nM | 825 nM | > 10000 nM | 1400 nM | CC(C)CC(C(=O)NCC#N)c1cncc(-c2ccccc2)c1 (centres undefined)
10 | 97 nM | 3330 nM | 8390 nM | 1360 nM | 1240 nM | CC(C)CC(C(=O)NCC#N)c1cccc(-c2ccc(-c3ccncc3)cc2)c1 (centres undefined)
11 | 87 nM | > 10000 nM | > 10000 nM | > 10000 nM | – | CCCC(C(=O)NCC#N)c1cccc(-c2ccc(N3CCN(C)CC3)cc2)c1 (centres undefined)
12 | 79 nM | – | – | – | – | CC(C)C[C@H](C(=O)NCC#N)c1cccc(-c2ccc3[nH]ccc3c2)c1
13 | 58 nM | 1250 nM | 338 nM | 521 nM | – | CC(C)CC(C(=O)NCC#N)c1cccc(-c2ccc(C3CNCCN3)cc2)c1 (stereo in doubt; 44)
14 | 56 nM | > 10000 nM | 498 nM | 1580 nM | 3560 nM | CC(C)CC(C(=O)NCC#N)c1cccc(-c2ccccc2)c1 (centres undefined)
15 | 52 nM | > 10000 nM | > 10000 nM | 922 nM | 249 nM | CC(C)CC(C(=O)NCC#N)c1cccc(-c2ccc3[nH]ccc3c2)c1 (racemic)
16 | 51 nM | 1900 nM | – | 41 nM | – | CC(C)CC(NC(=O)c1ccccc1)C(=O)NCC#N (centres undefined)
17 | 51 nM | 5790 nM | > 10000 nM | > 10000 nM | – | CC[C@H](C)CC(C(=O)NCC#N)c1cccc(-c2ccc(N3CCN(C)CC3)cc2)c1 (some centres undefined)
18 | 12 nM | 3340 nM | 140 nM | 609 nM | – | CC(C)CC(C(=O)NCC#N)c1cccc(-c2ccc(N3CCN(CCO)CC3)cc2)c1 (centres undefined)
19 | 10 nM | 550 nM | 2160 nM | 2360 nM | 121 nM | CC(=O)CN1CCN(c2ccc(-c3cccc(C(CC(C)C)C(=O)NCC#N)c3)cc2)CC1 (centres undefined)
20 | 3 nM | 3950 nM | 3720 nM | 2010 nM | 95 nM | CC(C)C[C@@H](C(=O)NCC#N)c1cccc(-c2ccc(N3CCNCC3)cc2)c1
